# According to patent US10251902B2, “Pharmaceutical composition for treating or preventing neuropsychiatric disease, containing flavone-6-C-glucose derivatives as active ingredients” (priority 2013, dated 2019):
# Experiments:
# [1] = system: model of memory impairment induced by scopolamine; assay: Passive avoidance test in scopolamine-induced memory impairment model; assay type: in vivo, ICR mice; conditions: for Main Experiment / Passive Avoidance Learning: scopolamine 1 mg/Kg i.p.; for Main Experiment: latency 24 h after learning; for latency time extended compared to that of the control 2: main experiment, control 2 = scopolamine
# Experimental: (§1) An experiment was conducted to confirm effects of swertisin or isoorientin, and extracts of Swertia pseudochinensis or Swertia japonica containing the same prepared in Examples 1 to 3 in treating dementia by using a model of memory impairment induced by scopolamine. Detailed method follows.
# (§2) Six-week old ICR mice in about 26 g to 28 g (Orientbio Inc, Republic of Korea) were received water and feed without constraint and adapted for 5 days under an environment having about 23±1° C. of temperature, about 60±10% of humidity and 12-hour light/dark cycle (animal laboratory at College of Pharmacy, Kyung-Hee University), and then used for the experiment.
# An apparatus for measuring passive avoidance reaction was prepared. The apparatus has 2 separated chambers (the first and second chambers) and there is a guillotine-shaped passage that connects the first chamber and the second chamber. The first chamber was maintained brightly by using a light, and the second chamber was maintained darkly. A grid was installed on the floor of the second chamber. The grid generates 0.5 mA of electric shock for 3 seconds when the laboratory animal moved into the dark chamber.
# About 30 minutes later, 1 mg/Kg of scopolamine, which was dissolved in distilled water, was intraperitoneally administered to the drug administration groups 1 to 4 and controls 1 and 2 (Ebert, U. et al., Eur. J. Clin. Invest., 28, pp 944-949, 1998), and 0.9% of saline solution was intraperitoneally administered to the control 3. After 30 minutes, passive avoidance learning was conducted on the drug administration groups 1-4 and controls 1-3. In detail, the mice were located in the first chamber (i.e. bright space) and the passage was open after about 20 seconds of observation time, and then latency time of the mice moving to the second chamber (i.e. dark space) was measured.
# Twenty-four hours after the passive avoidance learning, a main experiment was conducted on the drug administration groups 1-4 and controls 1-3. Latency time of the mice of each group moving their 4 legs into the dark space after 10 seconds of observation time from opening of the guillotine-shaped passage was measured up to 300 seconds. It means that the passive avoidance learning and memory are better if the latency time is longer.
# (§3) The passive avoidance test was conducted on the drug administration groups 1-4 and controls 1-3 in the same manner as the method explained above except that swertisin, which is one of the flavone-6-C-β-D-glucose derivatives prepared in Example 3, was dissolved in 10% Tween 80 and administered to the drug administration groups 1-4 in amounts of 1.25 mg/kg, 2.5 mg/kg, 5 mg/kg and 10 mg/kg respectively.
# as §3, with “Experimental Example 1-1” for “the method explained above”, “isoorientin,” for “swertisin,”
# (§4) The passive avoidance test was conducted on the drug administration groups 1-3 and controls 1-3 in the same manner as Experimental Example 1-1 except that a 70% ethanol extract of Swertia japonica prepared in Example 1, was dissolved in 10% Tween and administered to the drug administration groups 1-3 in amounts of 100 mg/kg, 200 mg/kg and 400 mg/kg respectively.
# as §4, with “pseudochinensis” for “japonica”, “2,” for “1,”, “Tween 80” for “Tween”
# [2] = system: model of memory impairment induced by scopolamine; assay: Y-maze test in scopolamine-treated mice; assay type: in vivo, ICR mice; conditions: donepezil 5 mg/Kg (Control 1), scopolamine 1 mg/Kg i.p.
# Experimental: as §1, §2
# A Y-maze was prepared for the experiment. The Y-maze has 3 branches and each branch has 42 cm of length, 3 cm of width and 12 cm of height. Angle between any two arms is 120 degrees and the arms were made of black polyvinyl resin.
# The mice prepared in the above 1) were separated into 5 groups (10 mice per each group) comprised of drug administration groups 1 and 2, and controls 1 to 3.
# The swertisin prepared in Example 3 (8 mg) was dissolved in 4 mL of 10% Tween 80 (Polyoxyethylene sorbitan monooleate: Sigma, U.S.A.), and administered to the drug administration groups 1 and 2 in an amounts of 5 mg/Kg and 10 mg/Kg respectively. Meanwhile, 5 mg/Kg of donepezil was administered to the control 1, and 0.15 mL of 10% Tween 80 was administered to the controls 2 and 3 respectively.
# About 30 minutes later, 1 mg/Kg of scopolamine, which was dissolved in distilled water, was intraperitoneally administered to the drug administration groups 1 and 2, and controls 1 and 2 (Ebert, U. et al., Eur. J. Clin. Invest., 28, pp. 944-949, 1998), and 0.9% of saline solution was intraperitoneally administered to the control 3.
# After 30 minutes, mice of the drug administration groups 1 and 2, and the controls 1-3 were carefully located on each branches of the Y-maze, which was divided as A, B and C respectively, and let the mice move freely for 8 minutes, and then recorded branches where mice have entered. The entrance was recorded when the entire body (i.e. including the tail) has completely entered. It was also recorded when the mice entered again into the branch that the mice have entered before.
# One point was scored when the mouse sequentially entered into 3 different branches (actual alternation). Alternation behavior is defined as sequentially entering into every 3 branch, and it was converted into % via Equation 1 below (Sarter, M. et al., Psychopharmacology., 94, pp. 491-495, […]).
smiles,measurement,setting,value
"COc1cc2c(cc1OC)C(=O)C(CC1CCN(Cc3ccccc3)CC1)C2 (stereo not drawn) [Donepezil, donepezil, reference compound]",Main Experiment,"[1]; Table 2, Control 1 (Donepezil), dose not given",138.7 ± 34.03 s
same,Passive Avoidance Learning,"[1]; Table 2, Control 1 (Donepezil), dose not given, learning trial",25.60 ± 10.83 s
same,Main Experiment,"[1]; Table 3, Control 1 (Donepezil), dose not given",127.8 ± 11.43 s
same,Passive Avoidance Learning,"[1]; Table 3, Control 1 (Donepezil), dose not given, learning trial",21.30 ± 4.964 s
same,Main Experiment,"[1]; Table 4, Control 1 (Donepezil), dose not given",169.6 ± 79.98
same,Passive Avoidance Learning,"[1]; Table 4, Control 1 (Donepezil), dose not given, learning trial",26.40 ± 16.23
same,Main Experiment,"[1]; Table 5, Control 1 (Donepezil), dose not given",159.6 ± 65.51
same,Passive Avoidance Learning,"[1]; Table 5, Control 1 (Donepezil), dose not given, learning trial",28.10 ± 19.02
same,Alternation Behavior (%),"[2]; Table 6, 8 minutes in Y-maze",61.49 ± 5.447%
same,Total Entry,"[2]; Table 7, total number of entry to each branch, 8 minutes",29.30 ± 4.296
O=c1cc(-c2ccc(O)c(O)c2)oc2cc(O)c([C@@H]3O[C@H](CO)[C@@H](O)[C@H](O)[C@H]3O)c(O)c12 [isoorientin],Main Experiment,"[1]; Table 3, isoorientin 1.25 mg/kg, up to 300 seconds",41.00 ± 7.988 s
same,Passive Avoidance Learning,"[1]; Table 3, isoorientin 1.25 mg/kg, latency in learning trial",43.60 ± 5.340 s
same,Main Experiment,"[1]; Table 3, isoorientin 2.5 mg/kg, up to 300 seconds",80.90 ± 19.44 s
same,Passive Avoidance Learning,"[1]; Table 3, isoorientin 2.5 mg/kg, latency in learning trial",40.00 ± 5.499 s
same,Main Experiment,"[1]; Table 3, isoorientin 5 mg/kg, up to 300 seconds",119.3 ± 73.43 s
same,Passive Avoidance Learning,"[1]; Table 3, isoorientin 5 mg/kg, latency in learning trial",35.20 ± 5.236 s
same,Main Experiment,"[1]; Table 3, isoorientin 10 mg/kg, up to 300 seconds",102.8 ± 15.89 s
same,Passive Avoidance Learning,"[1]; Table 3, isoorientin 10 mg/kg, latency in learning trial",26.80 ± 5.085 s
same,latency time extended compared to that of the control 2,[1]; isoorientin 2.5 mg/Kg,about 2 fold
same,latency time extended compared to that of the control 2,[1]; isoorientin 5 mg/Kg,about 3 fold
same,latency time extended compared to that of the control 2,[1]; isoorientin 10 mg/Kg,about 2.5 fold
